Measured values taken from ChEMBL document CHEMBL1143363, “Discovery of trisubstituted cyclohexanes as potent CC chemokine receptor 2 (CCR2) antagonists” (Bioorg Med Chem Lett, 2009).

Experiments:
[1] = molecular target: T1, C-C chemokine receptor type 2 (Homo sapiens, UniProt P41597); assay: Displacement of [125I]MCP1 from CCR2 in human PBMCs
Target sequence in this assay (P41597 whole entry): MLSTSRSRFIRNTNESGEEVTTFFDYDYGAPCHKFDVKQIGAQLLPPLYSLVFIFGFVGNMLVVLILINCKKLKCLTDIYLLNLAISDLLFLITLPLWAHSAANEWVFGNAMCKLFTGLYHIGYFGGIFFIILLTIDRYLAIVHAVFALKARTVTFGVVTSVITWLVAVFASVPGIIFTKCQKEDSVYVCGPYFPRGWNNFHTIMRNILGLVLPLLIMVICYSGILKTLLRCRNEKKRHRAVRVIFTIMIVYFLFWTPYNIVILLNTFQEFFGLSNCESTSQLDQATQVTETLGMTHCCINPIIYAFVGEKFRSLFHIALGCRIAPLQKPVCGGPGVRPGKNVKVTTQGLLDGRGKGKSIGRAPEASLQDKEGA

[2] = molecular target: T1, C-C chemokine receptor type 2; assay: Antagonist activity at CCR2 in human monocytes assessed as inhibition of MCP1-induced calcium influx by FLIPR; format: functional, cell-based
Target sequence in this assay (P41597 whole entry): as above

[3] = molecular target: T1, C-C chemokine receptor type 2; assay: Displacement of [125I]MCP1 from CCR2 in human PBMCs at 1 uM
Target sequence in this assay (P41597 whole entry, looked up): as the sequence (P41597 whole entry) above

[4] = Antagonist activity at CCR2 in human PBMCs assessed as inhibition of MCP1-induced chemotaxis

Row | SMILES | IC50 [1] | IC50 [2] | Activity [3] | IC50 [4]
1 | CSc1ccc(C(=O)NC2CCC(NC(=O)OCc3ccccc3)CC2NC(=O)CNC(=O)c2cc(C(F)(F)F)ccc2NC(=O)OC(C)(C)C)cc1 (racemic) | 600 nM | – | – | –
2 | CNC(=O)NC1CCC(NC(=O)c2ccc(SC)cc2)C(NC(=O)CNC(=O)c2cc(C(F)(F)F)ccc2N)C1 (racemic) | 112 nM | – | – | –
3 | CN(C)C1CCC(NC(=O)CNC(=O)c2cccc(C(F)(F)F)c2)C(NCc2ccc(Cl)cc2)C1 (racemic) | 16 nM | 7 nM | – | –
4 | CN(C)C1CCC(NC(=O)CNC(=O)c2cccc(C(F)(F)F)c2)C(NCc2ccc(Cl)c(Cl)c2)C1 (racemic) | 61.5 nM | – | – | –
5 | CSc1ccc(C(=O)NC2CCC(N)CC2NC(=O)CNC(=O)c2cc(C(F)(F)F)ccc2N)cc1 (racemic) | 167 nM | – | 28.1% | –
6 | CSc1ccc(C(=O)NC2CCC(NC(C)C)CC2NC(=O)CNC(=O)c2cccc(C(F)(F)F)c2)cc1 (racemic) | 136 nM | – | – | –
7 | COc1ccc(CNC2CC(N(C)C)CCC2NC(=O)CNC(=O)c2cccc(C(F)(F)F)c2)cc1 (racemic) | 12.5 nM | 8 nM | – | –
8 | CN(C)C1CCC(NC(=O)CNC(=O)c2cccc(C(F)(F)F)c2)C(NCc2cccc(C(F)(F)F)c2)C1 (racemic) | 32.5 nM | 27 nM | – | –
9 | CC(=O)Nc1ccc(CNC2CC(N(C)C)CCC2NC(=O)CNC(=O)c2cccc(C(F)(F)F)c2)cc1 (racemic) | 7.7 nM | – | – | –
10 | CSc1ccc(C(=O)NC2CC(N)CCC2NC(=O)CNC(=O)c2cc(C(F)(F)F)ccc2N)cc1 (racemic) | 4.8 nM | 6 nM | – | –
11 | CSc1ccc(CNC2CC(N(C)C)CCC2NC(=O)CNC(=O)c2cccc(C(F)(F)F)c2)cc1 (racemic) | 2.4 nM | 6 nM | – | –
12 | Cc1ccc(CNC2CC(N(C)C)CCC2NC(=O)CNC(=O)c2cccc(C(F)(F)F)c2)cc1 (racemic) | 9.9 nM | 5.5 nM | – | –
13 | CSc1ccc(C(=O)NC2CCNCC2NC(=O)CNC(=O)c2cc(C(F)(F)F)ccc2N)cc1 (racemic) | – | – | – | 109 nM
14 | CSc1ccc(C(=O)NC2CC(N)CCC2NC(=O)CNC(=O)c2cccc(C(F)(F)F)c2)cc1 (racemic) | 228 nM | – | – | –
15 | CSc1ccc(C(=O)NC2CCCCC2NC(=O)CNC(=O)c2cc(C(F)(F)F)ccc2N)cc1 (racemic) | 155 nM | – | – | –
16 | CSc1ccc(C(=O)NC2CCC(NC(=O)OCc3ccccc3)CC2NC(=O)CNC(=O)c2cccc(C(F)(F)F)c2)cc1 (racemic) | 1610 nM | – | 0% | –
17 | CSc1ccc(C(=O)NC2CCC(NC(C)C)CC2NC(=O)CNC(=O)c2cc(C(F)(F)F)ccc2N)cc1 (racemic) | 3.8 nM | 2 nM | – | –
18 | CC(C)c1ccc(CNC2CC(N(C)C)CCC2NC(=O)CNC(=O)c2cccc(C(F)(F)F)c2)cc1 (racemic) | 16.5 nM | 19 nM | – | –
19 | CN(C)C1CCC(NC(=O)CNC(=O)c2cccc(C(F)(F)F)c2)C(NCc2ccc3[nH]ccc3c2)C1 (racemic) | 3.1 nM | 8 nM | – | –
20 | CSc1ccc(C(=O)NC2CC(NC(C)C)CCC2NC(=O)CNC(=O)c2cccc(C(F)(F)F)c2)cc1 (racemic) | – | – | 31.4% | –
21 | CSc1ccc(C(=O)NC2CCC(N)CC2NC(=O)CNC(=O)c2cccc(C(F)(F)F)c2)cc1 (racemic) | – | – | 13% | –
22 | CSc1ccc(C(=O)NC2CCC(NC(=O)OCc3ccccc3)CC2NC(=O)CNC(=O)c2cc(C(F)(F)F)ccc2N)cc1 (racemic) | – | – | 3.1% | –
23 | CSc1ccc(C(=O)NC2CC(NC(=O)OCc3ccccc3)CCC2NC(=O)CNC(=O)c2cccc(C(F)(F)F)c2)cc1 (racemic; form 1) | – | – | 14% | –
24 | CSc1ccc(C(=O)NC2CC(NC(=O)OCc3ccccc3)CCC2NC(=O)CNC(=O)c2cccc(C(F)(F)F)c2)cc1 (racemic; form 2) | 2.4 nM | 2 nM | – | –
